Details: Liquid; for viscosity: Capillary tube (Ostwald / Ubbelohde) method; for mass density: Vibrating tube method

CCCCCCCCCO [nonan-1-ol]
Details	mass density [kg/m3]	viscosity [mPa·s]
298.15 K, 1990 kPa	825.5	9.285
298.15 K, 3990 kPa	826.7	9.511
298.15 K, 6000 kPa	828	9.746
298.15 K, 8010 kPa	829.2	9.958
298.15 K, 10010 kPa	830.5	10.17
298.15 K, 13000 kPa	832.2	10.51
298.15 K, 16000 kPa	833.9	10.85
298.15 K, 19010 kPa	835.5	11.2
298.15 K, 21990 kPa	837.1	11.56
298.15 K, 25000 kPa	838.7	11.93
298.15 K, 28020 kPa	840.2	12.28
298.15 K, 30020 kPa	841.1	12.51
303.14 K, 27980 kPa	836.9	11.13
303.15 K, 2010 kPa	822	8.424
303.15 K, 4010 kPa	823.2	8.633
303.15 K, 6020 kPa	824.5	8.843
303.15 K, 8030 kPa	825.7	9.053
303.15 K, 9990 kPa	826.9	9.257
303.15 K, 12980 kPa	828.7	9.568
303.15 K, 15970 kPa	830.4	9.88
303.15 K, 19020 kPa	832.1	10.2
303.15 K, 22010 kPa	833.8	10.51
303.15 K, 25000 kPa	835.4	10.82
303.15 K, 30000 kPa	837.9	11.34
313.15 K, 2000 kPa	814.9	6.381
313.15 K, 3970 kPa	816.3	6.536
313.15 K, 6020 kPa	817.6	6.699
313.15 K, 7990 kPa	818.9	6.854
313.15 K, 10020 kPa	820.2	7.015
313.15 K, 13000 kPa	822	7.25
313.15 K, 16000 kPa	823.8	7.487
313.15 K, 18980 kPa	825.6	7.723
313.15 K, 22000 kPa	827.3	7.961
313.15 K, 25000 kPa	829	8.198
313.15 K, 28010 kPa	830.6	8.436
313.15 K, 29990 kPa	831.7	8.592
323.15 K, 2010 kPa	808.3	4.745
323.15 K, 4020 kPa	809.7	4.859
323.15 K, 6020 kPa	811	4.976
323.15 K, 8010 kPa	812.3	5.09
323.15 K, 10010 kPa	813.7	5.202
323.15 K, 13010 kPa	815.7	5.376
323.15 K, 16010 kPa	817.5	5.539
323.15 K, 19000 kPa	819.3	5.716
323.15 K, 22010 kPa	821.1	5.892
323.15 K, 25000 kPa	822.9	6.07
323.15 K, 28000 kPa	824.6	6.247
323.15 K, 30000 kPa	825.7	6.373

CCCCO [butan-1-ol]
Details	mass density [kg/m3]	viscosity [mPa·s]
298.12 K, 2010 kPa	806.8	2.608
298.12 K, 3910 kPa	808.2	2.657
298.12 K, 6020 kPa	809.8	2.708
298.12 K, 8030 kPa	811.2	2.752
298.12 K, 9910 kPa	812.5	2.797
298.12 K, 16020 kPa	816.6	2.94
298.12 K, 19030 kPa	818.5	3.018
298.12 K, 22000 kPa	820.4	3.092
298.12 K, 25020 kPa	822.3	3.166
298.12 K, 28000 kPa	824	3.237
298.12 K, 30010 kPa	825.1	3.287
298.13 K, 13010 kPa	814.6	2.867
303.15 K, 2010 kPa	803.3	2.351
303.15 K, 4000 kPa	804.8	2.393
303.15 K, 5980 kPa	806.3	2.436
303.15 K, 8010 kPa	807.8	2.479
303.15 K, 9990 kPa	809.2	2.522
303.15 K, 12990 kPa	811.3	2.586
303.15 K, 15990 kPa	813.3	2.65
303.15 K, 22010 kPa	817.3	2.779
303.15 K, 25010 kPa	819.1	2.843
303.15 K, 27970 kPa	820.9	2.912
303.15 K, 29990 kPa	822.1	2.957
303.16 K, 19000 kPa	815.3	2.714
313.15 K, 10020 kPa	801.8	1.969
313.15 K, 12980 kPa	803.9	2.019
313.15 K, 22020 kPa	810.2	2.182
313.15 K, 25010 kPa	812.2	2.237
313.16 K, 1990 kPa	795.5	1.832
313.16 K, 3980 kPa	797.1	1.868
313.16 K, 5990 kPa	798.7	1.902
313.16 K, 7980 kPa	800.2	1.935
313.16 K, 15980 kPa	806.1	2.073
313.16 K, 19010 kPa	808.2	2.125
313.16 K, 27990 kPa	814.1	2.292
313.16 K, 29990 kPa	815.3	2.329
323.14 K, 2000 kPa	787.9	1.421
323.14 K, 3920 kPa	789.6	1.446
323.14 K, 6030 kPa	791.3	1.473
323.14 K, 8000 kPa	792.9	1.499
323.14 K, 10020 kPa	794.5	1.525
323.14 K, 13040 kPa	796.9	1.565
323.14 K, 16050 kPa	799.2	1.603
323.14 K, 19000 kPa	801.3	1.646
323.14 K, 21990 kPa	803.4	1.684
323.14 K, 24970 kPa	805.5	1.723
323.14 K, 28000 kPa	807.5	1.759
323.14 K, 29970 kPa	808.8	1.785

CCCCCCCO [heptan-1-ol]
Details	mass density [kg/m3]	viscosity [mPa·s]
298.15 K, 2000 kPa	820.2	5.971
298.15 K, 4020 kPa	821.4	6.1
298.15 K, 6010 kPa	822.8	6.229
298.15 K, 8000 kPa	824	6.364
298.15 K, 10000 kPa	825.3	6.484
298.15 K, 13000 kPa	827.1	6.686
298.15 K, 16000 kPa	828.9	6.881
298.15 K, 19000 kPa	830.7	7.084
298.15 K, 22000 kPa	832.5	7.293
298.15 K, 25000 kPa	834.2	7.516
298.15 K, 28000 kPa	835.9	7.72
298.15 K, 29990 kPa	836.9	7.864
303.16 K, 2030 kPa	816.5	5.186
303.16 K, 4030 kPa	817.9	5.302
303.16 K, 6040 kPa	819.3	5.42
303.16 K, 7980 kPa	820.5	5.534
303.16 K, 9990 kPa	821.8	5.651
303.16 K, 12990 kPa	823.6	5.826
303.16 K, 16020 kPa	825.5	6.004
303.16 K, 19020 kPa	827.3	6.179
303.16 K, 22000 kPa	829.2	6.353
303.16 K, 24980 kPa	830.9	6.527
303.16 K, 27980 kPa	832.5	6.703
303.16 K, 30010 kPa	833.7	6.822
313.15 K, 2000 kPa	809.2	3.763
313.15 K, 4000 kPa	810.6	3.848
313.15 K, 5980 kPa	811.9	3.932
313.15 K, 7980 kPa	813.3	4.017
313.15 K, 9970 kPa	814.6	4.101
313.15 K, 13030 kPa	816.5	4.231
313.15 K, 16020 kPa	818.4	4.358
313.15 K, 19000 kPa	820.4	4.484
313.15 K, 22020 kPa	822.2	4.613
313.15 K, 25010 kPa	824	4.739
313.15 K, 27980 kPa	825.7	4.865
313.15 K, 30010 kPa	826.9	4.952
323.15 K, 1990 kPa	802.1	2.748
323.15 K, 4010 kPa	803.4	2.812
323.15 K, 5990 kPa	804.8	2.876
323.15 K, 8010 kPa	806.2	2.94
323.15 K, 10010 kPa	807.6	2.997
323.15 K, 13000 kPa	809.7	3.088
323.15 K, 16000 kPa	811.8	3.179
323.15 K, 18990 kPa	813.7	3.266
323.15 K, 22000 kPa	815.6	3.358
323.15 K, 25000 kPa	817.4	3.451
323.15 K, 28000 kPa	819.3	3.542
323.15 K, 30000 kPa	820.5	3.607
